Literature values as cited in patent US20220401317A1, “HYPOCHLORITE COMPOSITION AND SYSTEM AND METHOD FOR PREPARING A HYPOCHLORITE COMPOSITION AND USE OF THE SAME” (KONINKLIJKE PHILIPS N.V., priority 2019, published 2022).

In the case of `OCl` [hypochloric acid], the pKa is given as 7.53.
